Measurements from patent publication US8062607B2, “Lens care methods and kits” (Novartis AG, priority 2006, dated 2011).

What was measured:
[1] = Micro testing of dye in Aquify MPS as a stand alone solution; assay type: cell-based; conditions: dissolved in Aquify MPS
Source text: FD&C Blue No 1, Sanolin Blue, and Remazol Blue dissolved in Aquify® MPS (CIBA Vision) are submitted for micro testing as a stand alone solution.

[2] = Colorant stability in lens care solution (visible spectrum); assay type: physicochemical; conditions: in Aquify MPS
Experimental: The colorant stability has also been tested for FD&C Blue No 1 in Aquify® MPS stored at 25° and 45° C. for 94 days. […] This gives us a shelf-life estimation based on colorant stability alone of approximately a year for FD&C Blue No 1 in Aquify® MPS. The colorant stability has also been tested for Vitosyn Blue in a lens care solution described above stored at 25° and 45° C. for 52 days. […] This gives a shelf life estimation based on colorant stability alone for approximately 7 months for Vitosyn Blue in the lens care solution.

CCN(Cc1cccc(S(=O)(=O)[O-])c1)c1ccc(C(=C2C=CC(=[N+](CC)Cc3cccc(S(=O)(=O)[O-])c3)C=C2)c2ccccc2S(=O)(=O)[O-])cc1.[Na+].[Na+] [FD&C Blue No 1]
micro testing as a stand alone solution [1]: passes all micro testing
shelf-life estimation based on colorant stability alone [2]: approximately a year
change of visible spectrum from time 0 ([2]; 25° and 45° C., 94 days): has not changed significantly
